Where two headings read alike, the source gives them in different places.
Legend:
[1] = system: HIV-1 Q151Mc; experiment: Single-cycle drug susceptibility assay (MAGIC-5 cells); assay type: cell-based; conditions: Human immunodeficiency virus 1, MAGIC-5
Experimental: (§1) The NL4-3-based molecular clone was constructed by replacing the pol-coding region with the HIV-1 BH10 strain. […] Each molecular clone was transfected into COS-7 cells. Cells were grown for 48 h, and culture supernatants were harvested and stored at −80°C until use.
(§2) Susceptibilities to various RT inhibitors were determined using the MAGIC-5 cells which are HeLa cells stably transfected with a β-galactosidase gene under the control of an HIV long terminal repeat promoter, and with vectors that express the CD4 receptor and the CCR5 co-receptor under the control of the CMV promoter as described previously. Briefly, MAGIC-5 cells were infected with diluted virus stock (100 blue forming units) in the presence of increasing concentrations of RT inhibitors, cultured for 48 h, fixed, and stained with X-Gal (5-bromo-4-chloro-3-indolyl-β-D-galacto-pyranoside). The stained cells were counted under a light microscope.

[2] = system: HIV-1 Q151Mc/K70E; experiment: as above; assay type: cell-based; conditions: for EC50: Human immunodeficiency virus 1, MAGIC-5, Q151Mc/K70E; for Fold increase in EC50 compared to HIV-1 Q151Mc: Q151Mc/K70E vs Q151Mc
Experimental: as §1, §2

[3] = system: HIV-1 K70E; experiment: as above; assay type: cell-based; conditions: for EC50: Human immunodeficiency virus 1, MAGIC-5, K70E; for Fold increase in EC50 compared to HIV-1 WT: K70E vs WT
Experimental: as §1, §2

[4] = system: HIV-1 Q151Mc/K70R; experiment: as above; assay type: cell-based; conditions: for EC50: Human immunodeficiency virus 1, MAGIC-5, Q151Mc/K70R; for Fold increase in EC50 compared to HIV-1 Q151Mc: Q151Mc/K70R vs Q151Mc
Experimental: as §1, §2

[5] = system: HIV-1 K70T; experiment: as above; assay type: cell-based; conditions: for EC50: Human immunodeficiency virus 1, MAGIC-5, K70T; for Fold increase in EC50 compared to HIV-1 WT: K70T vs WT
Experimental: as §1, §2

[6] = system: HIV-1 Q151Mc/K70T; experiment: as above; assay type: cell-based; conditions: for EC50: Human immunodeficiency virus 1, MAGIC-5, Q151Mc/K70T; for Fold increase in EC50 compared to HIV-1 Q151Mc: Q151Mc/K70T vs Q151Mc
Experimental: as §1, §2

[7] = system: HIV-1 Q151Mc/K70Q; experiment: as above; assay type: cell-based; conditions: for EC50: Human immunodeficiency virus 1, MAGIC-5, Q151Mc/K70Q
Experimental: as §1, §2

[8] = system: HIV-1 K70G; experiment: as above; assay type: cell-based; conditions: for EC50: Human immunodeficiency virus 1, MAGIC-5, K70G; for Fold increase in EC50 compared to HIV-1 WT: K70G vs WT
Experimental: as §1, §2

[9] = system: HIV-1 Q151Mc/K70G; experiment: as above; assay type: cell-based; conditions: for EC50: Human immunodeficiency virus 1, MAGIC-5, Q151Mc/K70G; for Fold increase in EC50 compared to HIV-1 Q151Mc: Q151Mc/K70G vs Q151Mc
Experimental: as §1, §2

[10] = system: HIV-1 K70R; experiment: as above; assay type: cell-based; conditions: for EC50: Human immunodeficiency virus 1, MAGIC-5, K70R; for Fold increase in EC50 compared to HIV-1 WT: K70R vs WT
Experimental: as §1, §2

[11] = system: HIV-1 Q151Mc/K70N; experiment: as above; assay type: cell-based; conditions: for EC50: Human immunodeficiency virus 1, MAGIC-5, Q151Mc/K70N; for Fold increase in EC50 compared to HIV-1 Q151Mc: Q151Mc/K70N vs Q151Mc
Experimental: as §1, §2

[12] = system: HIV-1 K70Q; experiment: as above; assay type: cell-based; conditions: for EC50: Human immunodeficiency virus 1, MAGIC-5, K70Q; for Fold increase in EC50 compared to HIV-1 WT: K70Q vs WT
Experimental: as §1, §2

[13] = system: HIV-1 K70N; experiment: as above; assay type: cell-based; conditions: for EC50: Human immunodeficiency virus 1, MAGIC-5, K70N; for Fold increase in EC50 compared to HIV-1 WT: K70N vs WT
Experimental: as §1, §2

[14] = system: HIV-1 clinical isolate 1 (Q151Mc-containing); experiment: Single-cycle drug susceptibility assay (MAGIC-5 cells), clinical isolate 1; assay type: cell-based; conditions: Human immunodeficiency virus 1; clinical isolate 1, MAGIC-5 cells
Experimental: (§3) HIV was isolated from fresh plasma immediately after collection of clinical samples from study participants at the outpatient clinic of the AIDS Clinical Center (ACC), International Medical Center of Japan. The Institutional Review Board approved this study (IMCJ-H13-80) and a written consent was obtained from all participants.
as §2

[15] = system: HIV-1 NL4-3 strain (WT); experiment: microbe, parasite or virus in culture; assay type: cell-based; conditions: Human immunodeficiency virus 1, NL43; WT, MAGIC-5 cells, Table S1; read-out: EC50
Experimental: as §2

[16] = system: HIV-1 clinical isolate 2 (Q151Mc + K70Q); experiment: Single-cycle drug susceptibility assay (MAGIC-5 cells), clinical isolate 2; assay type: cell-based; conditions: Human immunodeficiency virus 1; clinical isolate 2, MAGIC-5 cells
Experimental: as §3, §2

[17] = system: HIV-1 WT; experiment: Single-cycle drug susceptibility assay (MAGIC-5 cells), recombinant WT clone; assay type: cell-based; conditions: Human immunodeficiency virus 1, Table S2
Experimental: as §1, §2

[18] = system: HIV-1 Q151Mc; conditions: cited from earlier work; for Increase in resistance: Q151Mc
[19] = molecular target: T1, HIV-1 RT Q151Mc (Human immunodeficiency virus type 1 group M subtype B, UniProt P03366, A661V/F676L/F715Y/Q750M/V674I); experiment: ATP-dependent rescue assay; assay type: biochemical
T1 construct: made in house; host or cells: Escherichia coli BL21
Experimental: (§4) Template/primer (T31/P18) terminated with TFV (T/PTFV) was prepared as described in Michailidis et al. 20 nM of T/PTFV was incubated at 37°C with HIV-1 RT (60 nM), either at various concentrations of ATP (0–7 mM) for 30 minutes, or for various times (0–120 minutes) with 3.5 mM ATP, in RT buffer containing 50 mM Tris-HCl, pH 7.8, and 50 mM NaCl, and 10 mM MgCl2. […] Reactions were quenched with 100% formamide containing traces of bromophenol blue and analyzed as described above. The dissociation constants (Kd) of the various enzymes for ATP used in the rescue reactions were determined by fitting the rescue data at various ATP concentrations, using non-linear regression fitting to hyperbola.

[20] = molecular target: T2, HIV-1 RT K70Q/Q151Mc (Human immunodeficiency virus type 1 group M subtype B, UniProt P03366, A661V/F676L/F715Y/K669Q/Q750M/V674I); experiment: ATP-dependent rescue assay; assay type: biochemical
T2 construct: made in house; host or cells: Escherichia coli BL21
Experimental: as §4

[21] = molecular target: T3, HIV-1 RT K70Q (Human immunodeficiency virus type 1 group M subtype B, UniProt P03366, K669Q); experiment: ATP-dependent rescue assay; assay type: biochemical
T3 construct: made in house; host or cells: Escherichia coli BL21
Experimental: as §4

[22] = molecular target: T4, HIV-1 RT WT (Human immunodeficiency virus type 1 group M subtype B, UniProt P03366); experiment: ATP-dependent rescue assay; assay type: biochemical; conditions: rescue of TFV-terminated primer, 30 minutes, read-out: apparent KD-ATP
T4 construct: made in house; host or cells: Escherichia coli BL21
Experimental: as §4

[23] = system: HIV-1 RT K70Q; experiment: ATP-dependent rescue assay; assay type: biochemical; conditions: WT RT vs K70Q RT, TFV-terminated primers, 3.5 mM ATP
Experimental: as §4

[24] = system: HIV-1 RT K70Q/Q151Mc; experiment: ATP-dependent rescue assay; assay type: biochemical; conditions: WT RT vs K70Q/Q151Mc RT, TFV-terminated primers, 3.5 mM ATP
Experimental: as §4

[25] = system: HIV-1 RT Q151Mc; experiment: ATP-dependent rescue assay; assay type: biochemical; conditions: WT RT vs Q151Mc RT, TFV-terminated primers, 3.5 mM ATP
Experimental: as §4

Compound	EC50 [1]	EC50 [2]	Fold increase in EC50 compared to HIV-1 Q151Mc [2]	EC50 [3]	Fold increase in EC50 compared to HIV-1 WT [3]	EC50 [4]	Fold increase in EC50 compared to HIV-1 Q151Mc [4]	EC50 [5]	Fold increase in EC50 compared to HIV-1 WT [5]	EC50 [6]	Fold increase in EC50 compared to HIV-1 Q151Mc [6]	EC50 [7]	EC50 [8]	Fold increase in EC50 compared to HIV-1 WT [8]	EC50 [9]	EC50 [10]	Fold increase in EC50 compared to HIV-1 WT [10]	EC50 [11]	Fold increase in EC50 compared to HIV-1 Q151Mc [11]	EC50 [12]	also measured
Nc1nc(NC2CC2)c2ncn([C@H]3C=C[C@@H](CO)C3)c2n1 [ABC, abacavir]	15 ± 2.1 µM	34 ± 2.1 µM	(2.3) fold	7.3 ± 0.12 µM	(4.1) fold	14 ± 1 µM	(0.9) fold	2.6 ± 0.21 µM	(1.4) fold	25 ± 2.3 µM	(1.7) fold	24 ± 2.9 µM	6.6 ± 0.29 µM	(3.7) fold	35 ± 2.7 µM	2.8 ± 0.31 µM	(1.6) fold	16 ± 2.1 µM	(1.1) fold	3.5 ± 0.6 µM	Fold increase in EC50 compared to HIV-1 Q151Mc ([7]; Q151Mc/K70Q vs Q151Mc): (1.6) fold; Fold increase in EC50 compared to HIV-1 Q151Mc [9]: (2.5) fold; Fold increase in EC50 compared to HIV-1 WT [12]: (1.9) fold; EC50 [13]: 3.2 ± 0.3 µM; Fold increase in EC50 compared to HIV-1 WT [13]: (1.8) fold; EC50 [14]: 16.3 ± 2.52 µM; EC50 [15]: 1.6 ± 0.46 µM; EC50 [16]: 24.7 ± 2.89 µM; EC50 [17]: 1.8 ± 0.22 µM; Resistance ([18]; Q151M plus the four associated mutations ref 17, 18, 19, 20, 21): 5 fold
Nc1ncnc2c1ncn2[C@@H]1O[C@H](COP(=O)(O)OP(=O)(O)OP(=O)(O)O)[C@@H](O)[C@H]1O [ATP, adenosine triphosphate]	–	–	–	–	–	–	–	–	–	–	–	–	–	–	–	–	–	–	–	–	Kd [19]: 2300 µM; Kd [20]: 3100 µM; Kd [21]: 700 µM; Kd [22]: 400 µM
C[C@H](Cn1cnc2c(N)ncnc21)OCP(=O)(O)O [TFV, tenofovir]	–	–	–	–	–	–	–	–	–	–	–	–	–	–	–	–	–	–	–	–	ATP-based rescue activity of WT RT, fold faster than mutant RT [23]: 1.5 fold; ATP-based rescue activity of WT RT, fold faster than mutant RT [24]: 3 fold; ATP-based rescue activity of WT RT, fold faster than mutant RT [25]: 2.5 fold; Increase in resistance ([18]; Miller et al. ref 22): 1.8 fold; Increase in resistance ([18]; Smith et al. ref 23): 3.6 fold
Cc1cn([C@H]2C=C[C@@H](CO)O2)c(=O)[nH]c1=O [d4T, stavudine]	25 ± 2.3 µM	32 ± 3.6 µM	(1.3) fold	16 ± 2.7 µM	(6.2) fold	44 ± 4.5 µM	(1.8) fold	2.2 ± 0.17 µM	(0.8) fold	16 ± 2.7 µM	(0.6) fold	110 ± 6.6 µM	4.3 ± 0.26 µM	(1.7) fold	115 ± 5.1 µM	4.3 ± 0.57 µM	(1.7) fold	25 ± 4 µM	(1) fold	3 ± 0.21 µM	Fold increase in EC50 compared to HIV-1 WT [12]: (1.2) fold; EC50 [13]: 3.4 ± 0.25 µM; Fold increase in EC50 compared to HIV-1 WT [13]: (1.3) fold; EC50 [14]: 18.3 ± 1.53 µM; EC50 [15]: 2 ± 0.55 µM; EC50 [16]: > 100 µM; EC50 [17]: 2.6 ± 0.23 µM
O=c1[nH]cnc2c1ncn2[C@H]1CC[C@@H](CO)O1 [ddI, didanosine]	45 ± 1 µM	30 ± 1.7 µM	(0.7) fold	13 ± 3.5 µM	(5.4) fold	53 ± 3.1 µM	(1.2) fold	8.9 ± 0.31 µM	(3.7) fold	13 ± 1.5 µM	(0.3) fold	108 ± 2.5 µM	16 ± 1.5 µM	(6.7) fold	59 ± 5 µM	3.3 ± 0.29 µM	(1.4) fold	109 ± 4.4 µM	(2.4) fold	12 ± 1.7 µM	Fold increase in EC50 compared to HIV-1 Q151Mc [9]: (1.3) fold; EC50 [13]: 3.7 ± 0.32 µM; Fold increase in EC50 compared to HIV-1 WT [13]: (1.5) fold; EC50 [14]: 29.3 ± 3.06 µM; EC50 [15]: 2.5 ± 0.35 µM; EC50 [16]: > 100 µM; EC50 [17]: 2.4 ± 0.26 µM

Source: publication PMC3020970, “K70Q Adds High-Level Tenofovir Resistance to “Q151M Complex” HIV Reverse Transcriptase through the Enhanced Discrimination Mechanism” (PLoS ONE, 2011)
